From US20080269202A1, “Novel 2,3-benzodiazepine derivatives and their use as antipsychotic agents” (Teva Pharmaceutical Industries Ltd., priority 2007, published 2008)

| SMILES | melting point [°C] |
| --- | --- |
| COc1cc2c(cc1OC)C(c1ccc([N+](=O)[O-])cc1)=NN(c1nc(C)c(C)s1)C(C)C2 (stereo not drawn) [Example 8] | 192 to 193 |
| COc1cc2c(cc1OC)C(c1ccc([N+](=O)[O-])cc1)=NN(c1nc(C)c(C)s1)C(C)C2 (stereo not drawn) [Example 9] | 190 to 192 |
| COc1cc2c(cc1OC)C(c1cccc(Cl)c1)=NN(c1nccs1)C(C)C2 (stereo not drawn) [Example 10] | 125 to 126 |
| COc1cc2c(cc1OC)C(c1ccc([N+](=O)[O-])c(C)c1)=NN(c1nncs1)C(C)C2 (stereo not drawn) [Example 19] | 195 to 196 |
| COc1cc2c(cc1OC)C(c1ccc([N+](=O)[O-])c(C)c1)=NN(c1nncs1)C(C)C2 (stereo not drawn) [Example 20] | 192 to 195 |
| COc1cc2c(cc1OC)C(c1ccc([N+](=O)[O-])c(Cl)c1)=NN(c1nncs1)C(C)C2 (stereo not drawn) [Example 21] | 214 to 215 |
| COc1cc2c(cc1OC)C(c1ccc([N+](=O)[O-])c(Cl)c1)=NN(c1nncs1)C(C)C2 (stereo not drawn) [Example 22] | 203 to 206 |
| COc1cc2c(cc1OC)C(c1cccc(Cl)c1)=NN(c1nncs1)C(C)C2 (stereo not drawn) [Example 23] | 86 to 88 |
| COc1cc2c(cc1OC)C(c1ccc(Cl)cc1)=NN(c1nncs1)C(C)C2 (stereo not drawn) [Example 24] | 203 to 204 |
| COc1ccc(C2=NN(c3nncs3)C(C)Cc3cc(OC)c(OC)cc32)cc1OC (stereo not drawn) [Example 25] | 173 to 174 |
| CCOc1cc2c(cc1OCC)C(c1ccc([N+](=O)[O-])cc1)=NN(c1nncs1)C(C)C2 (stereo not drawn) [Example 26] | 172 to 174 |
| COc1cc2c(cc1OC)C(c1ccc([N+](=O)[O-])cc1)=NN(c1nnc(C)s1)C(C)C2 (stereo not drawn) [Example 27] | 228 to 229 |
| COc1cc2c(cc1OC)C(c1ccc([N+](=O)[O-])cc1)=NN(c1nnco1)C(C)C2 (stereo not drawn) [Example 29] | 225 to 229 |
| COc1cc2c(cc1OC)C(c1ccc([N+](=O)[O-])cc1)=NN(c1nnc(C)o1)C(C)C2 (stereo not drawn) [Example 30] | 177 to 178 |
| COc1cc2c(cc1OC)C(c1ccc([N+](=O)[O-])c(C)c1)=NN(C1=NOCS1)C(C)C2 (stereo not drawn) [Example 35] | 180 to 182 |
| COc1cc2c(cc1OC)C(c1ccc(F)cc1)=NN(C1=NOCS1)C(C)C2 (stereo not drawn) [Example 36] | 186 to 191 |
| COc1cc2c(cc1OC)C(c1ccccc1)=NN(C1=NOCS1)C(C)C2 (stereo not drawn) [Example 37] | 170 to 173 |
| COc1cc2c(cc1OC)C(c1ccc([N+](=O)[O-])cc1)=NN(c1ncon1)C(C)C2 (stereo not drawn) [Example 40] | 213 to 214 |
| COc1cc2c(cc1OC)C(c1ccc([N+](=O)[O-])cc1)=NN(c1ncon1)C(C)C2 (stereo not drawn) [Example 41] | 190 to 192 |
| COc1cc2c(cc1OC)C(c1ccc([N+](=O)[O-])c(Cl)c1)=NN(c1ncon1)C(C)C2 (stereo not drawn) [Example 45] | 227 to 230 |
| COc1cc2c(cc1OC)C(c1ccc([N+](=O)[O-])c(Cl)c1)=NN(c1ncon1)C(C)C2 (stereo not drawn) [Example 46] | 206 to 208 |
| COc1cc2c(cc1OC)C(c1ccc([N+](=O)[O-])c(C)c1)=NN(c1noc(C)n1)C(C)C2 (stereo not drawn) [Example 47] | 206 to 208 |
| COc1cc2c(cc1OC)C(c1ccc([N+](=O)[O-])cc1)=NN(c1noc(C)n1)C(C)C2 (stereo not drawn) [Example 48] | 197 to 199 |
| COc1cc2c(cc1OC)C(c1ccc(Cl)cc1)=NN(c1ncon1)C(C)C2 (stereo not drawn) [Example 49] | 210 to 212 |
| COc1cc2c(cc1OC)C(c1ccc(F)cc1)=NN(c1ncon1)C(C)C2 (stereo not drawn) [Example 50] | 217 to 220 |
| COc1cc2c(cc1OC)C(c1ccccc1)=NN(c1ncon1)C(C)C2 (stereo not drawn) [Example 51] | 215 to 216 |
| CCOc1cc2c(cc1OCC)C(c1ccc([N+](=O)[O-])cc1)=NN(c1ncon1)C(C)C2 (stereo not drawn) [Example 52] | 158 to 162 |
| COc1ccc(C2=NN(c3ncon3)C(C)Cc3cc(OC)c(OC)cc32)cc1OC (stereo not drawn) [Example 53] | 188 to 189 |
| CNC(=O)N1N=C(c2cc(C)c([N+](=O)[O-])c(C)c2)c2cc(OC)c(OC)cc2CC1C (stereo not drawn) [Example 77] | 158 to 160 |

More lines, now with the values ahead:

| melting point [°C] | SMILES |
| --- | --- |
| 149 to 150 | CCNC(=O)N1N=C(c2ccc([N+](=O)[O-])c(C)c2)c2cc(OC)c(OC)cc2CC1C (stereo not drawn) [Example 80] |
| 188 to 189 | CCOc1cc2c(cc1OCC)C(c1ccc([N+](=O)[O-])cc1)=NN(C(=O)NC)C(C)C2 (stereo not drawn) [Example 93] |
| 239 to 242 | COc1cc2c(cc1OC)C(c1ccc(N)cc1)=NN(c1ncon1)[C@H](C)C2 [Example 103] |
| 136 to 138 | COc1cc2c(cc1OC)C(c1ccc(N)c(C)c1)=NN(c1ncon1)[C@@H](C)C2 [Example 105] |
| 105 to 108 | COc1cc2c(cc1OC)C(c1ccc(N)c(C)c1)=NN(c1noc(C)n1)[C@H](C)C2 [Example 106] |
| 108 to 110 | COc1cc2c(cc1OC)C(c1ccc(N)c(Cl)c1)=NN(c1ncon1)[C@H](C)C2 [Example 107] |
| 159 to 160 | COc1cc2c(cc1OC)C(c1ccc(N)cc1)=NN(c1nncs1)[C@H](C)C2 [Example 108] |
| 160 to 162 | COc1cc2c(cc1OC)C(c1ccc(N)cc1)=NN(c1nncs1)[C@@H](C)C2 [Example 109] |
| 129 to 134 | COc1cc2c(cc1OC)C(c1ccc(N)c(Cl)c1)=NN(c1nncs1)[C@H](C)C2 [Example 111] |
| 122 to 124 | COc1cc2c(cc1OC)C(c1ccc(N)cc1)=NN(c1nc(C)c(C)s1)[C@H](C)C2 [Example 113] |
| 116 to 118 | COc1cc2c(cc1OC)C(c1ccc(N)c(C)c1)=NN(c1nccs1)[C@H](C)C2 [Example 114] |
| 116 to 117 | COc1cc2c(cc1OC)C(c1ccc(N)c(Cl)c1)=NN(c1nccs1)[C@H](C)C2 [Example 115] |
| 232 to 234 | COc1cc2c(cc1OC)C(c1ccc(N)c(Cl)c1)=NN(C1=NCCS1)[C@H](C)C2 [Example 116] |
| 194 to 197 | COc1cc2c(cc1OC)C(c1ccc(N)c(C)c1)=NN(C1=NOCS1)[C@H](C)C2 [Example 118] |
| 134 to 135 | COc1cc2c(cc1OC)C(c1ccc(N)cc1)=NN(C1=NOCS1)[C@@H](C)C2 [Example 119] |
| 143 to 145 | CONC(=O)N1N=C(c2ccc(N)cc2)c2cc(OC)c(OC)cc2C[C@H]1C [Example 135] |
| 130 to 134 | COc1cc2c(cc1OC)C(c1ccc(NC(C)=O)cc1)=NN(c1nccs1)C(C)C2 (stereo not drawn) [Example 181] |
| 209 to 211 | COc1cc2c(cc1OC)C(c1ccc(NC(C)=O)c(C)c1)=NN(c1nccs1)C(C)C2 (stereo not drawn) [Example 182] |
| 238 to 239 | COc1cc2c(cc1OC)C(c1ccc(NC(C)=O)cc1)=NN(c1nc(C)c(C)s1)[C@H](C)C2 [Example 184] |
| 229 to 231 | COc1cc2c(cc1OC)C(c1ccc(NC(C)=O)c(C)c1)=NN(c1nccs1)[C@H](C)C2 [Example 185] |
| 213 to 215 | COc1cc2c(cc1OC)C(c1ccc(NC(C)=O)c(Cl)c1)=NN(c1nccs1)[C@H](C)C2 [Example 186] |
| 150 to 151 | COc1cc2c(cc1OC)C(c1ccc(NC(C)=O)cc1)=NN(c1nncs1)C(C)C2 (stereo not drawn) [Example 187] |
